Results on 6 compounds are retold here after patent EP0908457B1, “3-(1,2-benzisothiazol- and isoxazol-5-Y1)-2,4(1H,3H)-pyrimidinedione or thione and 3-(1,2-benzisothiazol- and isoxazol-5-y1)-4(3H)-pyrimidinone or thione herbicidal agents” (BASF AKTIENGESELLSCHAFT, priority 1997, dated 1999).

The structures appear in SMILES notation.

Holding throughout (format): in vivo
Assay [1] relates to Echinochloa oryzoides (Ard.) Fritsch. Kind of assay: Preemergence weed control under flooded paddy conditions, ECHORC (Watergrass (Calif.)). On herbicidal effect rating, ECHORC: meaning of each grade not given here. The following applies: flooded paddy; for ECHORC: herbicidal effect rating 0-9, three to four weeks after treatment.
Assay [2] concerns Cyperus iria. Description: Preemergence weed control under flooded paddy conditions, CYPIR (Rice Flatsedge). On herbicidal effect rating, CYPIR: meaning of each grade not given here. As to conditions: flooded paddy; for CYPIR: herbicidal effect rating 0-9, three to four weeks after treatment.
Assay [3] relates to Cyperus serotinus, Rottb. Description: Preemergence weed control under flooded paddy conditions, CYPSE (Flatsedge). On herbicidal effect rating, CYPSE: meaning of each grade not given here. The following applies: for CYPSE: herbicidal effect rating 0-9, three to four weeks after treatment.
The subject of assay [4] is Monochoria vaginalis, Presl. Kind of assay: Preemergence weed control under flooded paddy conditions, MOOVA (Monochoria). On herbicidal effect rating, MOOVA: meaning of each grade not given here. As to conditions: flooded paddy; for MOOVA: herbicidal effect rating 0-9, three to four weeks after treatment.
Assay [5] has as its system Sagittaria pygmaea, L. Description: Preemergence weed control under flooded paddy conditions, SAGPY (Arrowhead (Pygmaea)). On herbicidal effect rating, SAGPY: meaning of each grade not given here. The following applies: flooded paddy; for SAGPY: herbicidal effect rating 0-9, three to four weeks after treatment.
The mark [6] stands for this setting: Rate 0.0320 kg/ha, preemergence, rated 3-4 weeks after treatment.
The mark [7] stands for this setting: Rate 0.0620 kg/ha, preemergence, rated 3-4 weeks after treatment.
The mark [8] stands for this setting: Rate 0.1250 kg/ha, preemergence, rated 3-4 weeks after treatment.
[9] abbreviates: Rate 0.2500 kg/ha, preemergence, rated 3-4 weeks after treatment.
Setting [10] is: 0.0320 kg/ha, preemergence weeds.
[11] abbreviates: 0.0620 kg/ha, preemergence weeds.
The mark [12] stands for this setting: 0.1250 kg/ha, preemergence weeds.
Where [13] appears, read: 0.2500 kg/ha, preemergence weeds.
The mark [14] stands for this setting: 0.0320 kg/ha, preemergence, rated three to four weeks after treatment.
[15] abbreviates: 0.0620 kg/ha, preemergence, rated three to four weeks after treatment.
Setting [16] is: 0.1250 kg/ha, preemergence, rated three to four weeks after treatment.
Where [17] appears, read: 0.2500 kg/ha, preemergence, rated three to four weeks after treatment.
The mark [18] stands for this setting: 0.0313 kg/ha, preemergence weeds, rated three to four weeks after treatment.
The mark [19] stands for this setting: 0.0625 kg/ha, preemergence weeds, rated three to four weeks after treatment.
[20] abbreviates: 0.1250 kg/ha, preemergence weeds, rated three to four weeks after treatment.
[21] abbreviates: 0.2500 kg/ha, preemergence weeds, rated three to four weeks after treatment.

Regarding `CC/C=C/CCCCCCCCCCOC(=O)COc1ccc(C)cc1-c1nsc2ccc(-n3c(=O)cc(C(F)(F)F)n(C)c3=O)cc12` [Example 526, Acetic acid, {{2-{5-[3,6-dihydro-3-methyl-2,6-dioxo-4-(trifluoromethyl)-1(2H)-pyrimidinyl]-1,2-benzisothiazol-3-yl}-p-tolyl}oxy}-, 11-tetradecenyl ester, (E)-], the “herbicidal effect rating, ECHORC” value in assay [1] (setting [6]) is 2.0; in assay [1] (setting [7]), 2.0; in assay [1] (setting [8]), 4.0; in assay [1] (setting [9]), 6.0. Besides, the “herbicidal effect rating, CYPIR” value was 2.0 in assay [2] (setting [6]), 4.0 in assay [2] (setting [7]), 7.0 in assay [2] (setting [8]) and 9.0 in assay [2] (setting [9]). Also, the “herbicidal effect rating, CYPSE” value in assay [3] (setting [6]), in assay [3] (setting [7]), in assay [3] (setting [8]) and in assay [3] (setting [9]) was 0.0 each time. In addition, the “herbicidal effect rating, MOOVA” value in assay [4] (setting [6]) worked out at 8.0; in assay [4] (setting [7]), 9.0; in assay [4] (setting [8]), 9.0; in assay [4] (setting [9]), 9.0. The “herbicidal effect rating, SAGPY” value in assay [5] (setting [6]), in assay [5] (setting [7]), in assay [5] (setting [8]) and in assay [5] (setting [9]) was 0.0 in each case.
As to `Cn1c(C(F)(F)F)cc(=O)n(-c2ccc3snc(C(=O)c4ccccc4)c3c2)c1=O` [Example 449, 2,4(1,3H)-Pyrimidinedione, 3-(3-benzoyl-1,2-benzisothiazol-5-yl)-1-methyl-6-(trifluoromethyl)-], the ECHORC is on record as 5.0 in assay [1] (setting [10]), 7.0 in assay [1] (setting [11]), 9.0 in assay [1] (setting [12]) and 9.0 in assay [1] (setting [13]). For the same compound, the CYPIR stood at 4.0 in assay [2] (setting [10]), 5.0 in assay [2] (setting [11]), 8.0 in assay [2] (setting [12]) and 9.0 in assay [2] (setting [13]). The CYPSE in assay [3] (setting [10]) came to 2.0; in assay [3] (setting [13]), 4.0. Further, the MOOVA in assay [4] (setting [10]) was determined as 7.0; in assay [4] (setting [11]) it was 7.0; in assay [4] (setting [12]), 9.0; in assay [4] (setting [13]), 9.0. Also, the SAGPY in assay [5] (setting [10]) was 2.0; in assay [5] (setting [11]), 4.0; in assay [5] (setting [12]), 4.0; in assay [5] (setting [13]), 6.0.
`CCOC(=O)C1CCC(OC(=O)COc2ccc(C)cc2-c2nsc3ccc(-n4c(=O)cc(C(F)(F)F)n(C)c4=O)cc23)CC1` (single isomer, unassigned; isomer a) [Example 524, Acetic acid, {{2-{5-[3,6-dihydro-3-methyl-2,6-dioxo-4-(trifluoromethyl)-1(2H)-pyrimidinyl]-1,2-benzisothiazol-3-yl}-p-tolyl}oxy}-, ester with ethyl 4-hydroxycyclohexanecarboxylate, isomer A]: the “herbicidal effect rating, ECHORC” value in assay [1] (setting [6]) is given as 7.0; in assay [1] (setting [7]), 9.0; in assay [1] (setting [8]), 9.0; in assay [1] (setting [9]) it was 9.0. In addition, the “herbicidal effect rating, CYPIR” value is recorded as 2.0 in assay [2] (setting [6]), 2.0 in assay [2] (setting [7]), 4.0 in assay [2] (setting [8]) and 7.0 in assay [2] (setting [9]). Besides, the “herbicidal effect rating, CYPSE” value turned out to be 0.0 in assay [3] (setting [6]), 0.0 in assay [3] (setting [7]), 2.0 in assay [3] (setting [8]) and 6.0 in assay [3] (setting [9]). Also, the “herbicidal effect rating, MOOVA” value in assay [4] (setting [6]), in assay [4] (setting [7]), in assay [4] (setting [8]) and in assay [4] (setting [9]) was 9.0 each time. The “herbicidal effect rating, SAGPY” value in assay [5] (setting [6]), in assay [5] (setting [7]), in assay [5] (setting [8]) and in assay [5] (setting [9]) was 0.0 each time.
For the compound `COc1cccc(CC(=O)OCc2nsc3ccc(-n4c(=O)cc(C(F)(F)F)n(C)c4=O)cc23)c1` [Example 454, 2,4(1H,3H)-Pyrimidinedione, 3-[3-(hydroxymethyl)-1,2-benzisothiazol-5-yl]-1-methyl-6-(trifluoromethyl)-, (m-methoxyphenyl)acetate (ester)], the ECHORC amounted to 3.0 in assay [1] (setting [10]), 3.0 in assay [1] (setting [11]), 6.0 in assay [1] (setting [12]) and 7.0 in assay [1] (setting [13]). Also, the CYPIR is 0.0 in assay [2] (setting [10]), 1.0 in assay [2] (setting [11]), 6.0 in assay [2] (setting [12]) and 9.0 in assay [2] (setting [13]). In addition, the CYPSE in assay [3] (setting [10]) amounted to 0.0; in assay [3] (setting [11]), 0.0; in assay [3] (setting [12]), 4.0; in assay [3] (setting [13]), 8.0. Also, the MOOVA was found to be 2.0 in assay [4] (setting [10]), 7.0 in assay [4] (setting [11]), 9.0 in assay [4] (setting [12]) and 9.0 in assay [4] (setting [13]). Besides, the SAGPY is 0.0 in assay [5] (setting [10]), 2.0 in assay [5] (setting [11]), 3.0 in assay [5] (setting [12]) and 6.0 in assay [5] (setting [13]).
Consider `COC(CCOc1ccc(C)cc1-c1nsc2ccc(-n3c(=O)cc(C(F)(F)F)n(C)c3=O)cc12)OC` [Example 467, Propionaldehyde, 3-{{2-[5-{3,6-dihydro-3-methyl-2,6-dioxo-4-(trifluoromethyl)-1(2H)-pyrimidinyl]-1,2-benzisothiazol-3-yl}-p-tolyl}oxy}-, 1-(dimethylacetal)], for which the ECHORC herbicidal rating in assay [1] (setting [14]) was 6.0; in assay [1] (setting [15]), 7.0; in assay [1] (setting [16]) it was 9.0; in assay [1] (setting [17]), 9.0. For the same compound, the CYPIR herbicidal rating in assay [2] (setting [14]) amounted to 2.0; in assay [2] (setting [15]), 5.0; in assay [2] (setting [16]), 6.0; in assay [2] (setting [17]), 9.0. Further, the CYPSE herbicidal rating in assay [3] (setting [14]) came to 6.0; in assay [3] (setting [15]) it was 7.0; in assay [3] (setting [16]) it was 9.0; in assay [3] (setting [17]) it was 9.0. Besides, the MOOVA herbicidal rating in assay [4] (setting [14]) amounted to 7.0; in assay [4] (setting [15]), 9.0; in assay [4] (setting [16]), 9.0; in assay [4] (setting [17]) it was 9.0. In addition, the SAGPY herbicidal rating in assay [5] (setting [14]) is 0.0; in assay [5] (setting [15]), 0.0; in assay [5] (setting [16]) it was 3.0; in assay [5] (setting [17]), 7.0.
Take `CC(C)=NOC(=O)COc1ccc(C)cc1-c1nsc2ccc(-n3c(=O)cc(C(F)(F)F)n(C)c3=O)cc12` [Example 194]: the “herbicidal effect rating, ECHORC” value in assay [1] (setting [18]) came out at 0.0; in assay [1] (setting [19]) it was 2.0; in assay [1] (setting [20]), 6.0; in assay [1] (setting [21]) it was 9.0. The “herbicidal effect rating, CYPIR” value in assay [2] (setting [18]), in assay [2] (setting [19]), in assay [2] (setting [20]) and in assay [2] (setting [21]) was 0.0 each time. Further, the “herbicidal effect rating, CYPSE” value in assay [3] (setting [18]), in assay [3] (setting [19]), in assay [3] (setting [20]) and in assay [3] (setting [21]) was 0.0 each time. Further, the “herbicidal effect rating, MOOVA” value in assay [4] (setting [18]), in assay [4] (setting [19]), in assay [4] (setting [20]) and in assay [4] (setting [21]) was 9.0 each time. The “herbicidal effect rating, SAGPY” value in assay [5] (setting [18]), in assay [5] (setting [19]), in assay [5] (setting [20]) and in assay [5] (setting [21]) was 0.0 in each case.
